Measurements: patent US12390437B2, “Itaconic acid derivatives and uses thereof intreating an inflammatory disease or a disease associated with an undesirable immune response” (Sitryx Therapeutics Limited, priority 2019, dated 2025)

Tested on: IL-1β cytokine output from THP-1s
Assay: THP-1 AlphaLISA IL-1β cytokine assay
Assay type: cell-based, human
Settings: Homo sapiens, THP-1, PMA-differentiated THP-1 cells, LPS 24 hr then Nigericin 1 hour; read-out: IL-1β (IC50)
Outline: (§1)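 PMA-differentiated (72 h) THP-1 cells pretreated 30 min with compound, LPS-stimulated 24 h, then nigericin 1 h at 37 °C. Supernatant IL-1β and IL-6 by AlphaLISA; % inhibition normalised to ±LPS controls, IC50 from concentration-response curves.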

Going from `C=C(CC(=O)OC1CCCCCCC1)C(=O)OCC(=O)O` [Example 90, 2-((4-(cyclooctyloxy)-2-methylene-4-oxobutanoyl)oxy)acetic acid] to `C=C(CC(=O)OC)C(=O)OC` [dimethyl itaconate, reference compound], the IC50 rises from 16.4 µM to greater than 100 µM. The first is the more potent here.

Same assay, conditions: Homo sapiens, THP-1, Table 10; assay of Biological Example 1 (THP-1); read-out: IL-1β (IC50)

Work on `C=C(CC(=O)OC)C(=O)OC` [dimethyl itaconate, reference compound] yielded an IC50 greater than 100 µM.

Tested on: IL-6 cytokine output from THP-1s
Assay: THP-1 AlphaLISA IL-6 cytokine assay
Assay type: cell-based, human
Settings: Homo sapiens; PMA-differentiated THP-1 cells, LPS 24 hr then Nigericin 1 hour
Outline: as §1

In order of falling IC50:
1. C=C(CC(=O)OC)C(=O)OC [dimethyl itaconate, reference compound]  100 µM
2. C=C(CC(=O)OC1CCCCCCC1)C(=O)OCC(=O)O [Example 90, 2-((4-(cyclooctyloxy)-2-methylene-4-oxobutanoyl)oxy)acetic acid]  9.8 µM

Tested on: not listed separately
Assay: Mouse pharmacokinetic study, intravenous dosing
Assay type: in vivo
Settings: male, C57BL/6, mouse, iv; plasma, 10 mg/kg i.v., time 0.05 h; read-out: Parent compound concentration following intravenous administration
Outline: (§2)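 Plasma drug levels were quantified by LC-MS/MS from K2EDTA facial-vein semi-serial bleeds (N=3 per time point) in male C57BL/6 mice aged 6-8 weeks. Gavage dosing used 100 mg/kg (5% DMSO/HPMC-Tween vehicle, 5 min–24 h); tail-vein dosing used 10 mg/kg (10% DMSO/HP-β-CD vehicle, 3 min–8 h).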

In order of falling concentration at 0.05 h:
1. C=C(CC(=O)OC1CCCCCCC1)C(=O)OCC(=O)O [Example 90, 2-((4-(cyclooctyloxy)-2-methylene-4-oxobutanoyl)oxy)acetic acid]  19200 ng/mL
2. C=C(CC(=O)OC)C(=O)OC [dimethyl itaconate, reference compound]  874 ng/mL

Same assay, conditions: male, C57BL/6, mouse, iv; plasma, 10 mg/kg i.v., time 0.133 h; read-out: Parent compound concentration following intravenous administration

Going from `C=C(CC(=O)OC1CCCCCCC1)C(=O)OCC(=O)O` [Example 90, 2-((4-(cyclooctyloxy)-2-methylene-4-oxobutanoyl)oxy)acetic acid] to `C=C(CC(=O)OC)C(=O)OC` [dimethyl itaconate, reference compound], the concentration at 0.133 h falls from 7160 ng/mL to less than 24 ng/mL.

Same assay, conditions: male, C57BL/6, mouse, iv; plasma, 10 mg/kg i.v., time 0.25 h; read-out: Parent compound concentration following intravenous administration

Going from `C=C(CC(=O)OC1CCCCCCC1)C(=O)OCC(=O)O` [Example 90, 2-((4-(cyclooctyloxy)-2-methylene-4-oxobutanoyl)oxy)acetic acid] to `C=C(CC(=O)OC)C(=O)OC` [dimethyl itaconate, reference compound], the concentration at 0.25 h falls from 2020 ng/mL to less than 24 ng/mL.

Same assay, conditions: male, C57BL/6, mouse, iv; plasma, 10 mg/kg i.v., time 0.5 h; read-out: Parent compound concentration following intravenous administration

Compared with `C=C(CC(=O)OC1CCCCCCC1)C(=O)OCC(=O)O` [Example 90, 2-((4-(cyclooctyloxy)-2-methylene-4-oxobutanoyl)oxy)acetic acid], `C=C(CC(=O)OC)C(=O)OC` [dimethyl itaconate, reference compound] is lower in concentration at 0.5 h: 1600 ng/mL for the first, less than 24 ng/mL for the second.

Same assay, conditions: male, C57BL/6, mouse, iv; plasma, 10 mg/kg i.v., time 1 h; read-out: Parent compound concentration following intravenous administration

Compared with `C=C(CC(=O)OC1CCCCCCC1)C(=O)OCC(=O)O` [Example 90, 2-((4-(cyclooctyloxy)-2-methylene-4-oxobutanoyl)oxy)acetic acid], `C=C(CC(=O)OC)C(=O)OC` [dimethyl itaconate, reference compound] is lower in concentration at 1 h: 89 ng/mL for the first, less than 24 ng/mL for the second.

Same assay, conditions: male, C57BL/6, mouse, iv; plasma, 10 mg/kg i.v., time 2 h; read-out: Parent compound concentration following intravenous administration

`C=C(CC(=O)OC1CCCCCCC1)C(=O)OCC(=O)O` [Example 90, 2-((4-(cyclooctyloxy)-2-methylene-4-oxobutanoyl)oxy)acetic acid] and `C=C(CC(=O)OC)C(=O)OC` [dimethyl itaconate, reference compound] cannot be ordered by concentration at 2 h: 3.6 ng/mL for the first, less than 24 ng/mL for the second.

Same assay, conditions: male, C57BL/6, mouse, iv; plasma, 10 mg/kg i.v., time 4 h; read-out: Parent compound concentration following intravenous administration

`C=C(CC(=O)OC1CCCCCCC1)C(=O)OCC(=O)O` [Example 90, 2-((4-(cyclooctyloxy)-2-methylene-4-oxobutanoyl)oxy)acetic acid] and `C=C(CC(=O)OC)C(=O)OC` [dimethyl itaconate, reference compound] cannot be ordered by concentration at 4 h: 2.8 ng/mL for the first, less than 24 ng/mL for the second.

Same assay, conditions: male, C57BL/6, mouse, iv; plasma, 10 mg/kg i.v., time 6 h; read-out: Parent compound concentration following intravenous administration

`C=C(CC(=O)OC1CCCCCCC1)C(=O)OCC(=O)O` [Example 90, 2-((4-(cyclooctyloxy)-2-methylene-4-oxobutanoyl)oxy)acetic acid] and `C=C(CC(=O)OC)C(=O)OC` [dimethyl itaconate, reference compound] cannot be ordered by concentration at 6 h: 1.7 ng/mL for the first, less than 24 ng/mL for the second.

Same assay, conditions: male, C57BL/6, mouse, iv; plasma, 10 mg/kg i.v., time 8 h; read-out: Parent compound concentration following intravenous administration

`C=C(CC(=O)OC1CCCCCCC1)C(=O)OCC(=O)O` [Example 90, 2-((4-(cyclooctyloxy)-2-methylene-4-oxobutanoyl)oxy)acetic acid] and `C=C(CC(=O)OC)C(=O)OC` [dimethyl itaconate, reference compound] cannot be ordered by concentration at 8 h: 1.2 ng/mL for the first, less than 24 ng/mL for the second.

Same assay, conditions: mouse, 10 mg/kg i.v.

In the case of `C=C(CC(=O)OC)C(=O)OC` [dimethyl itaconate, reference compound], the “Quantifiability in plasma following intravenous dosing” value is reported as “only quantifiable at one timepoint”.

Tested on: not listed separately
Assay: Mouse pharmacokinetic study, oral administration
Assay type: in vivo
Settings: male, C57BL/6, mouse, plasma, po, 100 mg/kg, plasma, male C57BL/6 mice, oral gavage 100 mg/kg, 0.083 h; read-out: Parent compound concentrations following oral administration, Time 0.083 h
Outline: as §2

First: C=C(CC(=O)OC1CCCCCCC1)C(=O)OCC(=O)O [Example 90, 2-((4-(cyclooctyloxy)-2-methylene-4-oxobutanoyl)oxy)acetic acid]
Second: C=C(CC(=O)OC)C(=O)OC [dimethyl itaconate, reference compound]
The concentration at 0.083 h of the first is higher: 22900 ng/mL for the first, less than 24 ng/mL for the second.

Same assay, conditions: male, C57BL/6, mouse, plasma, po, 100 mg/kg, plasma, male C57BL/6 mice, oral gavage 100 mg/kg, 0.25 h; read-out: Parent compound concentrations following oral administration, Time 0.25 h

Going from `C=C(CC(=O)OC1CCCCCCC1)C(=O)OCC(=O)O` [Example 90, 2-((4-(cyclooctyloxy)-2-methylene-4-oxobutanoyl)oxy)acetic acid] to `C=C(CC(=O)OC)C(=O)OC` [dimethyl itaconate, reference compound], the concentration at 0.25 h falls from 10600 ng/mL to less than 24 ng/mL.

Same assay, conditions: male, C57BL/6, mouse, plasma, po, 100 mg/kg, plasma, male C57BL/6 mice, oral gavage 100 mg/kg, 0.5 h; read-out: Parent compound concentrations following oral administration, Time 0.5 h

Going from `C=C(CC(=O)OC1CCCCCCC1)C(=O)OCC(=O)O` [Example 90, 2-((4-(cyclooctyloxy)-2-methylene-4-oxobutanoyl)oxy)acetic acid] to `C=C(CC(=O)OC)C(=O)OC` [dimethyl itaconate, reference compound], the concentration at 0.5 h falls from 6200 ng/mL to less than 24 ng/mL.

Same assay, conditions: male, C57BL/6, mouse, plasma, po, 100 mg/kg, plasma, male C57BL/6 mice, oral gavage 100 mg/kg, 1 h; read-out: Parent compound concentrations following oral administration, Time 1 h

First: C=C(CC(=O)OC1CCCCCCC1)C(=O)OCC(=O)O [Example 90, 2-((4-(cyclooctyloxy)-2-methylene-4-oxobutanoyl)oxy)acetic acid]
Second: C=C(CC(=O)OC)C(=O)OC [dimethyl itaconate, reference compound]
The concentration at 1 h of the first is higher: 3370 ng/mL for the first, less than 24 ng/mL for the second.

Same assay, conditions: male, C57BL/6, mouse, plasma, po, 100 mg/kg, plasma, male C57BL/6 mice, oral gavage 100 mg/kg, 2 h; read-out: Parent compound concentrations following oral administration, Time 2 h

Compared with `C=C(CC(=O)OC1CCCCCCC1)C(=O)OCC(=O)O` [Example 90, 2-((4-(cyclooctyloxy)-2-methylene-4-oxobutanoyl)oxy)acetic acid], `C=C(CC(=O)OC)C(=O)OC` [dimethyl itaconate, reference compound] is lower in concentration at 2 h: 3470 ng/mL for the first, less than 24 ng/mL for the second.

Same assay, conditions: male, C57BL/6, mouse, plasma, po, 100 mg/kg, plasma, male C57BL/6 mice, oral gavage 100 mg/kg, 4 h; read-out: Parent compound concentrations following oral administration, Time 4 h

Compared with `C=C(CC(=O)OC1CCCCCCC1)C(=O)OCC(=O)O` [Example 90, 2-((4-(cyclooctyloxy)-2-methylene-4-oxobutanoyl)oxy)acetic acid], `C=C(CC(=O)OC)C(=O)OC` [dimethyl itaconate, reference compound] is lower in concentration at 4 h: 1640 ng/mL for the first, less than 24 ng/mL for the second.

Same assay, conditions: male, C57BL/6, mouse, plasma, po, 100 mg/kg, plasma, male C57BL/6 mice, oral gavage 100 mg/kg, 6 h; read-out: Parent compound concentrations following oral administration, Time 6 h

First: C=C(CC(=O)OC1CCCCCCC1)C(=O)OCC(=O)O [Example 90, 2-((4-(cyclooctyloxy)-2-methylene-4-oxobutanoyl)oxy)acetic acid]
Second: C=C(CC(=O)OC)C(=O)OC [dimethyl itaconate, reference compound]
The concentration at 6 h of the first is higher: 1050 ng/mL for the first, less than 24 ng/mL for the second.

Same assay, conditions: male, C57BL/6, mouse, plasma, po, 100 mg/kg, plasma, male C57BL/6 mice, oral gavage 100 mg/kg, 8 h; read-out: Parent compound concentrations following oral administration, Time 8 h

First: C=C(CC(=O)OC1CCCCCCC1)C(=O)OCC(=O)O [Example 90, 2-((4-(cyclooctyloxy)-2-methylene-4-oxobutanoyl)oxy)acetic acid]
Second: C=C(CC(=O)OC)C(=O)OC [dimethyl itaconate, reference compound]
The concentration at 8 h of the first is higher: 500 ng/mL for the first, less than 24 ng/mL for the second.

Same assay, conditions: male, C57BL/6, mouse, plasma, po, 100 mg/kg, plasma, male C57BL/6 mice, oral gavage 100 mg/kg, 24 h; read-out: Parent compound concentrations following oral administration, Time 24 h

`C=C(CC(=O)OC1CCCCCCC1)C(=O)OCC(=O)O` [Example 90, 2-((4-(cyclooctyloxy)-2-methylene-4-oxobutanoyl)oxy)acetic acid] and `C=C(CC(=O)OC)C(=O)OC` [dimethyl itaconate, reference compound] cannot be ordered by concentration at 24 h: 1.1 ng/mL for the first, less than 24 ng/mL for the second.

Same assay, conditions: mouse, 100 mg/kg oral

For `C=C(CC(=O)OC)C(=O)OC` [dimethyl itaconate, reference compound], the “Quantifiability in plasma following oral administration” value was “below the limit of quantification at all timepoints”.
